Experimental data published in patent US5298522A, “6-chloro-5-fluoro-3-(2-thenoyl)-2-oxindole-1-carboxamide as an analgesic and anti-inflammatory agent while maintaining a normal urine protein/creatinine ratio” (Pfizer Inc., priority 1993, dated 1994).

Assays:
Proteinuria in patients = assay type: in vivo, human; conditions: for induction of proteinuria: in some patients, dose not stated
[1] = Double blind placebo-controlled study, urine protein/creatinine ratio (Example 1); assay type: in vivo, human
Description: (§1) "Significant increase or decrease" for proteinuria effects is herein defined as an increase or decrease having statistical significance as determined by conducting an analysis of variance (ANOVA). First, a regression line is fitted to protein/creatinine (PC) ratio data for each patient and treatment period, and a slope is determined. The slope is then analyzed using an ANOVA to test for sequence, period and treatment effects, to determine if a difference exists between the control and treated groups.
(§2) Large amounts of creatinine and much smaller amounts of protein are normally excreted in the urine of normal human subjects, and a protein/creatinine ratio of approximately 0.05 to 0.1 is usually maintained.
Using a double blind placebo-controlled design, 6-chloro-5-fluoro-3-(2-thenoyl)-2-oxindole-1-carboxamide was administered to 36 patients at dose levels of 40, 80, 160 and 320 mg, once daily. A single dose was given on day 1, followed by a seven day washout period, and then dosing was continued for a further 21 days. […] In addition, following the 2nd, 8th and 22nd dose; and 240 hours after the last dose, one 20 ml aliquot of urine, following the first am void but prior to the administration of study medication, was withdrawn for measurement of quantitative protein and creatinine.

[2] = Double blind, placebo controlled, crossover study, urine protein/creatinine ratio (Example 2); assay type: in vivo, human; conditions: 80 mg/day, four weeks
Description: as §1, §2
Using a double blind, placebo controlled, crossover design, 6-chloro-5-fluoro-3-(2-thenoyl)-2-oxindole-1-carboxamide was administered to 25 patients at a dose level of 80 mg/day. Patients were randomized to receive either 6-chloro-5-fluoro-3-(2-thenoyl)-2-oxindole-1-carboxamide for four weeks followed by placebo for four weeks, or to receive placebo for four weeks followed by 6-chloro-5-fluoro-3-(2-thenoyl)-2-oxindole-1-carboxamide for four weeks. Patients could switch to the second leg of the treatment regimen earlier if symptoms became intolerable. […] Urine protein/creatinine ratio was determined at baseline and weekly during the study. […]

[3] = system: PBQ-induced abdominal stretching in mice; assay: Blockage of abdominal stretching induced by 2-phenyl-1,4-benzoquinone (PBQ); assay type: in vivo, mice (Carworth males, albino CF-1 strain); conditions: oral, one hour before PBQ 2 mg/kg intraperitoneally
Description: The method is based on that of Siegmund et al., Proc. Soc. Exp. Biol. Med., 95, 729-731, (1957), as adapted for high throughput [see further Milne and Twomey, Agents and Actions, 10, 31-37, (1980)]. The mice used in these experiments are Carworth males, albino CF-1 strain, weighing 18-20 g. All mice are fasted overnight prior to drug administration and testing.
6-Chloro-5-fluoro-3-(2-thenoyl)-2-oxindole-1-carboxamide is dissolved or suspended in a vehicle consisting of ethanol (5%), emulphor 620 (a mixture of polyoxyethylene fatty acid esters, 5%) and saline (90%). This vehicle also served as control. Doses are on a logarithmic scale (i.e., . . . 0.32, 1.0, 3.2, […] . . . mg/kg), and are calculated from weights of the salt when applicable. The route of administration is oral, with concentrations varied to allow a constant dosage of 10 ml/kg of mouse. The aforesaid method of Milne and Towney is used to determine efficacy and potency. […] Individual mice are then immediately placed in a warmed lucite chamber, and, starting five minutes after PBQ administration, the number of abdominal constrictions during the subsequent 5 minutes are recorded. The degree of analgesic protection, Maximal Possible Effect (% MPE), is calculated on the basis of suppression of abdominal constriction relative to counts from concurrent control animals run on the same day. […]

[4] = system: carrageenin-induced rat-foot edema; assay: Carrageenin-induced rat-foot edema test; assay type: in vivo, rats (adult, male, albino); conditions: by gavage, one hour before carrageenin
Excerpt: [Winter et al., Proc. Soc. Exp. Biol. Med., 111, 544, (1963)].
Unanesthetized, adult, male, albino rats of 150 g to 190 g body weight are numbered, weighed, and an ink mark placed on the right lateral malleolus. Each paw is immersed in mercury exactly to the ink mark. The mercury is contained in a glass cylinder, connected to a Statham Pressure Transducer. The output from the transducer is fed through a control unit to a microvoltameter. The volume of mercury displaced by the immersed paw is read. The drug is given by gavage. One hour after drug administration, edema is induced by injection of 0.05 ml of 1% solution of carrageenin into the plantar tissue of the marked paws. Immediately thereafter, the volume of the injected foot is measured. The increase in foot volume 3 hours after the injection of carrageenin constitutes the individual inflammatory response.

Row | Compound | patients with proteinuria (Proteinuria in patients; 80 mg/day, within four weeks) | course of proteinuria (Proteinuria in patients; 80 mg/day, upon discontinuation of medication) | induction of proteinuria (Proteinuria in patients) | proteinuria ([1]; 320 mg/day) | urine protein/creatinine ratio, drug treated groups vs placebo treated groups ([1]; 40, 80, 160 and 320 mg once daily, single dose, seven day washout, then further 21 days) | change in urine protein/creatinine ratio during treatment [2] | urine protein/creatinine ratio, drug vs placebo treatment ([2]; crossover) | analgesic activity [3] | anti-inflammatory activity [4]
1 | NC(=O)N1C(=O)C(C(=O)c2cccs2)c2cc(Cl)ccc21 (stereo not shown) [5-chloro-3-(2-thenoyl)-2-oxindole-1-carboxamide] | 10-15% | non-progressive and reversible upon discontinuation of medication | induce non-progressive, reversible proteinuria in some patients |  |  |  |  |  | 
2 | NC(=O)N1C(=O)C(C(=O)c2cccs2)c2cc(F)c(Cl)cc21 (stereo not shown) [6-Chloro-5-fluoro-3-(2-thenoyl)-2-oxindole-1-carboxamide] |  |  | does not induce proteinuria | does not cause proteinuria | no significant differences | No significant changes | no significant differences | possess analgesic activity | possesses anti-inflammatory activity
